Experimental data reported in ChEMBL document CHEMBL1141328, “Biologically active aspidofractinine, rhazinilam, akuammiline, and vincorine alkaloids from Kopsia” (J Nat Prod, 2007).

Assays:
Format in all cases: functional, cell-based
KB [1] = assay: Cytotoxicity against vincristine-resistant human KB cells
[2] = Cytotoxicity against vincristine-resistant human KB/VJ300 cells
[3] = Cytotoxicity against vincristine-resistant human KB/VJ300 cells in presence of 0.121 uM vincristine
KB [4] = assay: Cytotoxicity against human KB cells
[5] = Cytotoxicity against human KB/VJ300 cells

SMILES | IC50 (KB [1]) | IC50 [2] | IC50 [3] | IC50 (KB [4]) [µM] | IC50 [5] [µM]
COC(=O)[C@H]1C[C@@]23CCCN4CC[C@@]5(c6ccccc6N[C@]15CC2)[C@@H]43 | > 25 µg/mL | > 25 µg/mL | > 25 µg/mL | – | –
C/C=C1/CN2CC[C@]34C(=Nc5ccccc53)[C@@H]2C[C@H]1C4(C(=O)OC)C(=O)OC(C)=O (stereo partly specified) | > 25 µg/mL | > 25 µg/mL | > 25 µg/mL | – | –
C/C=C1/CN(C=O)[C@H]2C[C@H]1C(C(=O)OC)[C@@]13CCO[C@@]21Nc1ccccc13 (stereo partly specified) [ASPIDOPHYLLINE A] | > 25 µg/mL | > 25 µg/mL | 29.1 µM | – | –
COC(=O)N1c2ccccc2[C@@]23CCN4CC=C[C@]5(CC[C@]12C(O)(C(=O)OC)C5O)[C@H]43 (stereo partly specified) [KOPSILOSCINE A] | 45.8 µM | 42.3 µM | 8.9 µM | – | –
COC(=O)N1c2ccccc2[C@@]23CCN4CCC[C@]5(CC[C@]12[C@](O)(C(=O)OC)[C@H]5O)[C@H]43 [KOPSILOSCINE B] | > 25 µg/mL | > 25 µg/mL | 11.7 µM | – | –
COC(=O)N1c2ccccc2[C@@]23CCN4CC[C@H](O)[C@@]5(CC[C@]12[C@](O)(C(=O)OC)[C@H]5O)[C@H]43 [KOPSILOSCINE C] | > 25 µg/mL | > 25 µg/mL | > 25 µg/mL | – | –
COC(=O)N1c2ccc(OC)cc2[C@@]23CCN4CCC[C@]5(CC[C@]12[C@](O)(C(=O)OC)[C@H]5O)[C@H]43 [KOPSILOSCINE D] | > 25 µg/mL | > 25 µg/mL | 25.1 µM | – | –
COC(=O)N1c2ccc(OC)cc2[C@@]23CCN4CC[C@H](O)[C@@]5(CC[C@]12[C@](O)(C(=O)OC)[C@H]5O)[C@H]43 [KOPSILOSCINE E] | > 25 µg/mL | > 25 µg/mL | > 25 µg/mL | – | –
COC(=O)N1c2c(OC)cccc2[C@@]23CCN4CC[C@H](O)[C@@]5(CC[C@]12[C@](O)(C(=O)OC)[C@H]5O)[C@H]43 [KOPSILOSCINE F] | > 25 µg/mL | > 25 µg/mL | > 25 µg/mL | – | –
CC[C@]12CCCn3c(C=O)cc(c31)-c1ccccc1NC(=O)CC2 [RHAZINAL] | 0.73 µM | 0.76 µM | 0.93 µM | – | –
CC[C@@]12CCC(=O)Nc3ccccc3-c3ccn(c31)C(=O)CC2 [RHAZINICINE] | 4.06 µM | 8.12 µM | 6.01 µM | – | –
CC[C@]12CCCn3ccc(c31)-c1ccccc1NC(=O)CC2 [RHAZINILAM] | 0.65 µM | 0.83 µM | 1.16 µM | – | –
C/C=C1/CN2CC[C@@]34c5ccccc5C[C@@]23CC[C@H]1C4(CO)C(=O)OC (stereo partly specified) [VINCOPHYLLINE] | > 25 µg/mL | > 25 µg/mL | > 25 µg/mL | – | –
CC[C@]1(O)C[C@H]2CN(CCc3c([nH]c4ccccc34)[C@@](C(=O)OC)(c3cc4c(cc3OC)N(C=O)[C@H]3[C@@](O)(C(=O)OC)[C@H](OC(C)=O)[C@]5(CC)C=CCN6CC[C@]43[C@@H]65)C2)C1 [VINCRISTINE] | – | – | – | 0.0028 | 1.2
